Measured values: US10092551B2, “Spiro-thiazolones” (Hoffmann-La Roche Inc., priority 2014, dated 2018)

Target: human V1a receptor (Homo sapiens (Human), UniProt P37288)
Assay: human V1a receptor binding studies (3H-Vasopressin, SPA beads)
Details: membranes of HEK293 cells transiently transfected with human V1a receptor, Ki by Cheng-Prussoff
Description: The human V1a receptor was cloned by RT-PCR from total human liver RNA. The coding sequence was subcloned in an expression vector after sequencing to confirm the identity of the amplified sequence. […] Cell membranes were prepared from HEK293 cells transiently transfected with the expression vector and grown in 20 liter fermenters with the following protocol.
50 g of cells are re-suspended in 30 ml freshly prepared ice cold Lysis buffer (50 mM HEPES, 1 mM EDTA, 10 mM MgCl2 adjusted to pH=7.4+complete cocktail of protease inhibitor (Roche Diagnostics)). Homogenized with Polytron for 1 min and sonicated on ice for 2×2 minutes at 80% intensity (Vibracell sonicator). The preparation is centrifuged 20 min at 500 g at 4° C., the pellet is discarded and the supernatant centrifuged 1 hour at 43,000 g at 4° C. (19,000 rpm). The pellet is re-suspended in 12.5 ml Lysis buffer+12.5 ml Sucrose 20% and homogenized using a Polytron for 1-2 min. The protein concentration is determined by the Bradford method and aliquots are stored at −80° C. until use. For binding studies 60 mg Yttrium silicate SPA beads (Amersham) are mixed with an aliquot of membrane in binding buffer (50 mM Tris, 120 mM NaCl, 5 mM KCl, 2 mM CaCl2, 10 mM MgCl2) for 15 minutes with mixing. 50 μl of bead/membrane mixture is then added to each well of a 96 well plate, followed by 50 μl of 4 nM 3H-Vasopressin (American Radiolabeled Chemicals). For total binding measurement 100 μl of binding buffer are added to the respective wells, for non-specific binding 100 μl of 8.4 mM cold vasopressin and for compound testing 100 μl of a serial dilution of each compound in 2% DMSO. The plate is incubated 1 h at room temperature, centrifuged 1 min at 1000 g and counted on a Packard Top-Count. Non-specific binding counts are subtracted from each well and data is normalized to the maximum specific binding set at 100%. To calculate an IC 50 the curve is fitted using a non-linear regression model (XLfit) and the Ki is calculated using the Cheng-Prussoff equation.

Sequence of human V1a receptor (P37288 whole entry): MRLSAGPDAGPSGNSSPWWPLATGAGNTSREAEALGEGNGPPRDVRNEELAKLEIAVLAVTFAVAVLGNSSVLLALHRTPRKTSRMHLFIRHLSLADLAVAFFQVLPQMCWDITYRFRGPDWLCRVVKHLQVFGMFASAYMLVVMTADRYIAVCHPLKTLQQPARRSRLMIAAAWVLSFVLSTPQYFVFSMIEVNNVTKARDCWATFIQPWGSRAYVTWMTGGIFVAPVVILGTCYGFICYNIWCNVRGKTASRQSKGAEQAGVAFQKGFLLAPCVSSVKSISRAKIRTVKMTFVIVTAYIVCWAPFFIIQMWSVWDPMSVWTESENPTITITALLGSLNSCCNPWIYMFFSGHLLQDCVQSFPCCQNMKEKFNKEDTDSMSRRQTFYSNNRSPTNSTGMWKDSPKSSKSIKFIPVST

Row | pKi hV1a | Compound
1 | 8.7 | O=C1N=C(N2CCC3(CC2)OCc2ccccc23)S/C1=C1/CCNC(=O)c2cc(Cl)ccc21 [Example 67, (5E/Z)-8-chloro-5-[4-oxo-2-(1′H,3H-spiro[2-benzofuran-1,4′-piperidin]-1′-yl)-1,3-thiazol-5(4H)-ylidene]-2,3,4,5-tetrahydro-1H-2-benzazepin-1-one]
2 | 8.0 | CC/C(=C1\SC(N2CCC3(CC2)OCc2ccccc23)=NC1=O)c1ccc(Cl)nc1 [Example 134, (5E)-5-[1-(6-chloropyridin-3-yl)propylidene]-2-(1′H,3H-spiro[2-benzofuran-1,4′-piperidin]-1′-yl)-1,3-thiazol-4(5H)-one]
3 | 9.0 | C/C(=C1/SC(N2CCC3(CC2)OCc2ccccc23)=NC1=O)c1ccccc1F [Example 57, (5Z)-5-[1-(2-fluorophenyl)ethylidene]-2-(1′H,3H-spiro[2-benzofuran-1,4′-piperidin]-1′-yl)-1,3-thiazol-4(5H)-one]
4 | 9.3 | C/C(=C1/SC(N2CCC3(CC2)OC(=O)c2ccccc23)=NC1=O)c1ccccc1 [Example 156, 1′-[(5Z)-4-oxo-5-(1-phenylethylidene)-4,5-dihydro-1,3-thiazol-2-yl]-3H-spiro[2-benzofuran-1,4′-piperidin]-3-one]
5 | 8.6 | C/C(=C1/SC(N2CCC3(CC2)OCc2ccccc23)=NC1=O)c1ccnc(Cl)c1 [Example 48, (5E/Z)-5-[1-(2-chloropyridin-4-yl)ethylidene]-2-(1′H,3H-spiro[2-benzofuran-1,4′-piperidin]-1′-yl)-1,3-thiazol-4(5H)-one]
6 | 9.3 | O=C1N=C(N2CCC3(CC2)OCc2ccccc23)S/C1=C(/CO)c1ccccc1 [Example 124, (5E)-5-(2-hydroxy-1-phenylethylidene)-2-(1′H,3H-spiro[2-benzofuran-1,4′-piperidin]-1′-yl)-1,3-thiazol-4(5H)-one]
7 | 7.9 | C/C(=C1/SC(N2CCC3(CC2)OC(=O)c2ccccc23)=NC1=O)c1ccc(C)nc1 [Example 135, 1′-{(5Z)-5-[1-(6-methylpyridin-3-yl)ethylidene]-4-oxo-4,5-dihydro-1,3-thiazol-2-yl}-3H-spiro[2-benzofuran-1,4′-piperidin]-3-one]
8 | 8.8 | C/C(=C1/SC(N2CCC3(CC2)OCc2ccccc23)=NC1=O)C1CCCC1 [Example 43, (5E/Z)-5-(1-cyclopentylethylidene)-2-(1′H,3H-spiro[2-benzofuran-1,4′-piperidin]-1′-yl)-1,3-thiazol-4(5H)-one]
9 | 8.8 | COCC(COC)=C1SC(N2CCC3(CC2)OCc2ccccc23)=NC1=O [Example 15, 5-(1,3-dimethoxypropan-2-ylidene)-2-(1′H,3H-spiro[2-benzofuran-1,4′-piperidin]-1′-yl)-1,3-thiazol-4(5H)-one]
10 | 6.7 | CC(C)(C)OC(=O)N1CCC/C(=C2/SC(N3CCC4(CC3)OCc3ccccc34)=NC2=O)C1 [Example 88, tert-butyl (3E/Z)-3-[4-oxo-2-(1′H,3H-spiro[2-benzofuran-1,4′-piperidin]-1′-yl)-1,3-thiazol-5(4H)-ylidene]piperidine-1-carboxylate]
11 | 8.0 | CC/C(=C1/SC(N2CCC3(CC2)OCc2ccccc23)=NC1=O)c1ccc(Cl)cc1 [Example 13, (5E/Z)-5-[1-(4-chlorophenyl)propylidene]-2-(1′H,3H-spiro[2-benzofuran-1,4′-piperidin]-1′-yl)-1,3-thiazol-4(5H)-one]
12 | 7.6 | O=C1N=C(N2CCC3(CC2)OCc2ccccc23)S/C1=C1\C=CCC1 [Example 128, (5Z)-5-(cyclopent-2-en-1-ylidene)-2-(1′H,3H-spiro[2-benzofuran-1,4′-piperidin]-1′-yl)-1,3-thiazol-4(5H)-one]
13 | 7.1 | C/C(=C1/SC(N2CCC3(CC2)OCc2ncccc23)=NC1=O)c1ccc(C)nc1 [Example 166, (5E/Z)-5-[1-(6-methylpyridin-3-yl)ethylidene]-2-(1′H,7H-spiro[furo[3,4-b]pyridine-5,4′-piperidin]-1′-yl)-1,3-thiazol-4(5H)-one]
14 | 7.5 | C/C(=C1\SC(N2CCC3(CC2)OCc2ccccc23)=NC1=O)c1ccncc1 [Example 36, (5E)-5-[1-(pyridin-4-yl)ethylidene]-2-(1′H,3H-spiro[2-benzofuran-1,4′-piperidin]-1′-yl)-1,3-thiazol-4(5H)-one]
15 | 8.3 | C/C(=C1\SC(N2CCC3(CC2)OC(=O)c2ccccc23)=NC1=O)c1ccc(Cl)nc1 [Example 138, 1′-{(5E)-5-[1-(6-chloropyridin-3-yl)ethylidene]-4-oxo-4,5-dihydro-1,3-thiazol-2-yl}-3H-spiro[2-benzofuran-1,4′-piperidin]-3-one]
16 | 9.0 | C/C(=C1/SC(N2CCC3(CC2)OCc2cccnc23)=NC1=O)c1ccc(Cl)cc1 [Example 2, (5E/Z)-5-[1-(4-chlorophenyl)ethylidene]-2-(1′H,5H-spiro[furo[3,4-b]pyridine-7,4′-piperidin]-1′-yl)-1,3-thiazol-4(5H)-one]
17 | 7.5 | O=C1N=C(N2CCC3(CC2)OCc2ccccc23)S/C1=C1/C(=O)Nc2ccccc21 [Example 74, (3E/Z)-3-[4-oxo-2-(1′H,3H-spiro[2-benzofuran-1,4′-piperidin]-1′-yl)-1,3-thiazol-5(4H)-ylidene]-1,3-dihydro-2H-indol-2-one]
18 | 7.8 | C/C(=C1\SC(N2CCC3(CC2)OC(=O)c2ccccc23)=NC1=O)c1ccccc1 [Example 157, 1′-[(5E)-4-oxo-5-(1-phenylethylidene)-4,5-dihydro-1,3-thiazol-2-yl]-3H-spiro[2-benzofuran-1,4′-piperidin]-3-one]
19 | 7.1 | O=C1N=C(N2CCC3(CC2)OCc2ccccc23)S/C1=C\c1ccncc1 [Example 95, 5-(pyridin-4-ylmethylidene)-2-(1′H,3H-spiro[2-benzofuran-1,4′-piperidin]-1′-yl)-1,3-thiazol-4(5H)-one]
20 | 8.7 | C/C(=C1\SC(N2CCC3(CC2)OCc2ccccc23)=NC1=O)c1ncccc1C [Example 155, (5E)-5-[1-(3-methylpyridin-2-yl)ethylidene]-2-(1′H,3H-spiro[2-benzofuran-1,4′-piperidin]-1′-yl)-1,3-thiazol-4(5H)-one]
21 | 6.8 | C/C(=C1/SC(N2CCC3(CC2)OCc2ccccc23)=NC1=O)c1ncc[nH]1 [Example 107, (5Z)-5-[1-(1H-imidazol-2-yl)ethylidene]-2-(1′H,3H-spiro[2-benzofuran-1,4′-piperidin]-1′-yl)-1,3-thiazol-4(5H)-one]
22 | 7.7 | CS(=O)(=O)N1CCC(=C2SC(N3CCC4(CC3)OCc3ccccc34)=NC2=O)CC1 [Example 68, 5-[1-(methylsulfonyl)piperidin-4-ylidene]-2-(1′H,3H-spiro[2-benzofuran-1,4′-piperidin]-1′-yl)-1,3-thiazol-4(5H)-one]
23 | 8.9 | C/C(=C1/SC(N2CCC3(CC2)OCc2ccccc23)=NC1=O)c1cccnc1 [Example 39, (5Z)-5-[1-(pyridin-3-yl)ethylidene]-2-(1′H,3H-spiro[2-benzofuran-1,4′-piperidin]-1′-yl)-1,3-thiazol-4(5H)-one]
24 | 7.8 | CC(C)/C(=C1\SC(N2CCC3(CC2)OCc2ccccc23)=NC1=O)c1ccc(Cl)nc1 [Example 132, (5E)-5-[1-(6-chloropyridin-3-yl)-2-methylpropylidene]-2-(1′H,3H-spiro[2-benzofuran-1,4′-piperidin]-1′-yl)-1,3-thiazol-4(5H)-one]
25 | 8.5 | O=C1N=C(N2CCC3(CC2)OCc2ccccc23)S/C1=C(/c1ccc(Cl)cc1)C(F)(F)F [Example 17, (5Z)-5-[1-(4-chlorophenyl)-2,2,2-trifluoroethylidene]-2-(1′H,3H-spiro[2-benzofuran-1,4′-piperidin]-1′-yl)-1,3-thiazol-4(5H)-one]
26 | 8.3 | CC(=O)OCC(COC(C)=O)=C1SC(N2CCC3(CC2)OCc2ccccc23)=NC1=O [Example 72, 2-[4-oxo-2-(1′H,3H-spiro[2-benzofuran-1,4′-piperidin]-1′-yl)-1,3-thiazol-5(4H)-ylidene]propane-1,3-diyl diacetate]

Row | Compound | pKi hV1a
27 | CC(C)(C)[Si](C)(C)OC/C(=C1\SC(N2CCC3(CC2)OCc2ccccc23)=NC1=O)c1ccc(Cl)nc1 [Example 131, (5Z)-5-[2-{[tert-butyl(dimethyl)silyl]oxy}-1-(6-chloropyridin-3-yl)ethylidene]-2-(1′H,3H-spiro[2-benzofuran-1,4′-piperidin]-1′-yl)-1,3-thiazol-4(5H)-one] | 7.8
28 | CC(C)(C)[Si](C)(C)OC/C(=C1\SC(N2CCC3(CC2)OC(=O)c2ccccc23)=NC1=O)c1ccc(Cl)nc1 [Example 146, 1′-{(5Z)-5-[2-{[tert-butyl(dimethyl)silyl]oxy}-1-(6-chloropyridin-3-yl)ethylidene]-4-oxo-4,5-dihydro-1,3-thiazol-2-yl}-3H-spiro[2-benzofuran-1,4′-piperidin]-3-one] | 7.3
